# Results reported in patent US20200323950A1, “ANTIBACTERIAL PEPTIDES AND COMBINATIONS FOR CO-THERAPY” (priority 2017, published 2020).
# “And” between values parts separate entries of the source, which are not always exact repeats. Equal values may be shown once. *1 amine or outer side, *2 acyl side, *3 side chain or, on linkers, in order; H or OH if unused. Where a SMILES comes first, the peptide text is derived from it. Bridges are numbered along the chain shown (N, C = ends). Roman numbers before positions name the chains, in order. Where no end group is shown, it is not given here. [ ]: non-standard residue; d: D form. The star is where a group is joined. X2 = O=C1NC(=O)C(SC[C@@H](CO)N[*:2])=C1SC[C@@H](CO)N[*:1]; BMH = O=C1CC([*:1])C(=O)N1CCCCCCN1C(=O)CC([*:2])C1=O; Maleimide(3,4-diyl) = O=C1NC(=O)C([*:2])=C1[*:1]; pXylylene = c1cc(C[*:2])ccc1C[*:1]; aThr = C[C@H](O)[C@H](N)C(=O)O; Ac6c = NC1(C(=O)O)CCCCC1; X1 = C(=C\C[*:2])/C[*:1]; Dab = NCC[C@H](N)C(=O)O; Nva = CCC[C@H](N)C(=O)O; NHNH2 = NN*
# Legend:
# [1] = tested on: A. baumannii ATCC 19606; assay: Antibacterial assay (MIC); type: cell-based; conditions: A. baumannii ATCC 19606, MHB, 37° C.
# Description: (§1) Antibacterial assay. Antibacterial assays are undertaken to determine the minimal inhibitory concentrations (MIC) as described previouslyl^6.
# (§2) Antibacterial activity. Each C-terminal modified PrAMP DTM-linked tetramer is assayed against nosocomial Gram-negative bacteria, including E. coli ATCC 29222, K. pneumoniae ATCC 13883, A. baumannii ATCC 19606 and P. aeruginosa ATCC 47085.
# [2] = tested on: E. coli ATCC 29222; assay: Antibacterial assay (MIC); type: cell-based; conditions: E. coli ATCC 29222, MHB, 37° C.
# Description: as §1, §2
# [3] = tested on: K. pneumoniae ATCC 13883; assay: Antibacterial assay (MIC); type: cell-based; conditions: K. pneumoniae ATCC 13883, MHB, 37° C.
# Description: as §1, §2
# [4] = tested on: P. aeruginosa ATCC 47085; assay: Antibacterial assay (MIC); type: cell-based; conditions: P. aeruginosa ATCC 47085, MHB, 37° C.
# Description: as §1, §2
# [5] = tested on: K. pneumoniae; assay: Synergy results for co-administration of A3-APO (ARV-1501); type: cell-based
# Description: Restoring antibiotic sensitivity to resistant bacteria. A colistin-resistant, carbapenem-resistant strain of K. pneumonia (K97/09) from a clinical isolate was used to test the effect of A3-APO treatment on antibiotic resistance. An in vitro assay measuring visible bacterial growth in the presence of A3-APO and imipenem or colistin was performed.
# Synergy Results for Co-administration of A3-APO (ARV-1501)
# [6] = tested on: K. pneumoniae K97/09; assay: Bacteremia Synergy Assay 1 (mouse systemic infection); type: in vivo; conditions: 10 mg/kg sc (Group 4), monotherapy
# Description: (§3) In vivo Studies. Animals. Assays 1-2. NMRI (Naval Medical Research Institute) BR or CD-1 mice (Toxi-Coop Zrt, Budapest, Hungary) were housed in plastic type 2 cages, 3-5 mice per cage, on softwood granules as bedding. The room was kept between 21° C. and 25° C. with 12 h light:12 h dark cycles. The animals had free access to tap water and pelleted rodent food. Upon completion of the experiments, surviving mice were euthanized by diethyl ether inhalation. Animals were maintained and handled in accordance with the recommendations of the Guidelines for the Care and Use of Laboratory Animals, and the protocols were approved by the Animal Care Committee of Semmelweis University. The planned 15 treatment groups of mice were divided roughly equally into two assays with 8 and 7 treatment groups and untreated controls in each assay for safe and humane handling of large numbers of mice.
# (§4) Infection models. NMRI mice weighing approximately 20 g (4 weeks old) were infected by intraperitoneal (ip) injection of 4×10^8 CFU/g K. pneumoniae K97/09. Mice were randomly allocated to 8 and […] groups (5 mice per group).
# Bacteremia Synergy Assay 1.
# Group 1: phosphate buffered saline (PBS) subcutaneously (sc) 1 h after infection. Group 2: imipenem 30 mg/kg sc at 2, 14 and 26 h after infection. […]
# Survival was recorded hourly 24-36 h after infection. […]
# [7] = tested on: K. pneumoniae K97/09; assay: Bacteremia Synergy Assay 2 (mouse systemic infection); type: in vivo
# Description: as §3, §4
# Bacteremia SYNERGY ASSAY 2.
# Group 1: PBS sc 1 h after infection. Group 2: Colistin 1 mg/kg sc at 2 and 13 h after infection. Group 3: A3-APO 1 mg/kg im 1 and 12 h after infection. Group 4: A3-APO 1 mg/kg im 1 and 12 h after infection, colistin 1 mg/kg sc at 2 and 13 h after infection. […]
# [8] = tested on: multidrug-resistant Klebsiella pneumoniae K97/09; conditions: K. pneumoniae K97/09, compound alone
# [9] = tested on: multidrug-resistant Acinetobacter baumannii BAA-1605; conditions: A. baumannii BAA-1605, compound alone
# [10] = tested on: Klebsiella pneumoniae K97/09; assay: Checkerboard synergy assay (FIC index); type: cell-based; conditions: K. pneumoniae K97/09
# Description: In vitro activity and synergy. Minimal inhibitory concentration (MIC) assays were performed using sterile 96-well polypropylene plates in a final volume of […]. Briefly, 50 μL of midlogarithmic phase bacterial cultures were diluted to 5×10^5 CFU/mL in Mueller-Hinton broth (MHB) and then added to 50 μL of the serially diluted antibiotic. The highest A3-APO and other test compound concentration evaluated was 256 mg/L. Cultures were incubated at 37° C. for 16-20 h without shaking. MICs were identified as the lowest antimicrobial concentrations at which turbidity was not observed. Antimicrobial synergy was determined by evaluating the fractional inhibitory concentration (FIC) index and was characterized by a conventional checkerboard assay (Fernandez-Cuenca et al., 2003). Bacteria grown to mid-logarithmic phase in MHB were pre-incubated with serially diluted concentrations of peptides such as A3-APO, and the antimicrobial controls, imipenem, colistin or meropenem.
# The sum of the FICs (Σ FIC) was calculated with the equation Σ FIC=FICA+FICB=(CA/MICA)+(CB/MICB), where MICA and MICB are the MICs of antimicrobial A and B alone, respectively, and CA and CB are the concentrations of the drugs when combined, respectively. Synergy was defined as a Σ FICs≤0.5 and additive activity was defined as a Σ FICs>0.5≤1.0.
# [11] = tested on: Acinetobacter baumannii BAA-1605; type: cell-based; conditions: A. baumannii BAA-1605
# Description: In vitro activity and synergy. Minimal inhibitory concentration (MIC) assays were performed using sterile 96-well polypropylene plates in a final volume of 100 mL. Briefly, 50 μL of midlogarithmic phase bacterial cultures were diluted to 5×10^5 CFU/mL in Mueller-Hinton broth (MHB) and then added to 50 μL of the serially diluted antibiotic. […] MICs were identified as the lowest antimicrobial concentrations at which turbidity was not observed. Antimicrobial synergy was determined by evaluating the fractional inhibitory concentration (FIC) index and was characterized by a conventional checkerboard assay (Fernandez-Cuenca et al., 2003).
Compound,"Antibacterial activity, MIC [1] [µM]","Antibacterial activity, MIC [2] [µM]","Antibacterial activity, MIC [3] [µM]","Antibacterial activity, MIC [4] [µM]",other results
I: H-[Ac6c]RPDKPRPYLPRPRPPRPVR[Dab]-NHNH2 / II: H-[Ac6c]RPDKPRPYLPRPRPPRPVR (amide I:21-II:C) [dimer-NHNH2],5.31 ± 0.73,2.99 ± 1.00,3.63 ± 0.02,3.01 ± 0.18,–
"I: H-[Ac6c]RPDKPRPYLPRPRPPRPVR[Dab]C-NH2 / II: H-[Ac6c]RPDKPRPYLPRPRPPRPVR[Dab]C-NH2 / III: H-[Ac6c]RPDKPRPYLPRPRPPRPVR / IV: H-[Ac6c]RPDKPRPYLPRPRPPRPVR (amide I:21-III:C, II:21-IV:C; linker I:22-II:22 via Maleimide(3,4-diyl)) [tetramer-DTM-NH2]",13.29 ± 0.10,2.96 ± 0.99,2.33 ± 0.01,2.05 ± 0.08,–
"I: [Ac6c]RPDKPRPYLPRPRPPRPVR[Dab]C-NHNH2 / II: [Ac6c]RPDKPRPYLPRPRPPRPVR[Dab]C-NHNH2 / III: [Ac6c]RPDKPRPYLPRPRPPRPVR / IV: [Ac6c]RPDKPRPYLPRPRPPRPVR (amide I:21-III:C, II:21-IV:C; linker I:22-II:22 via pXylylene) [tetramer-xylene-NHNH2]",12.70 ± 0.96,6.24 ± 0.53,4.49 ± 0.56,1.51 ± 0.33,–
colistin,–,–,–,–,"MIC of the antibiotic before co-administration (decrease from) ([5]; antibiotic without A3-APO): > 64; MIC of the antibiotic on co-administration (decrease to) ([5]; co-administered with A3-APO (ARV-1501)): 1; survival [6]: 60%; reduction of the bacterial burden ([7]; colistin 1 mg/kg sc (Group 2), after 6 h): < 1 log 10 unit; survival at 36 h ([7]; colistin 1 mg/kg sc twice (Group 2), monotherapy): 40%; MIC [8]: 64 µg/mL; MIC [9]: < 0.5 µg/mL"
"I: H-[Ac6c]RPDKPRPYLPRPRPPRPVR[Dab]-NH2 / II: H-[Ac6c]RPDKPRPYLPRPRPPRPVR (amide I:21-II:C) [A3-APO, (H-Chex-Arg-Pro-Asp-Lys-Pro-Arg-Pro-Tyr-Leu-Pro-Arg-Pro-Arg-Pro-Pro-Arg-Pro-Val-Arg)2-Dab]",8.00 ± 1.09,2.58 ± 1.14,1.44 ± 0.12,3.13 ± 0.05,MIC [8]: 32 to 64 µg/mL and 32 µg/mL; MIC [9]: 32 µg/mL
"I: [Ac6c]RPDKPRPYLPRPRPPRPVR[Dab]C-NHNH2 / II: [Ac6c]RPDKPRPYLPRPRPPRPVR[Dab]C-NHNH2 / III: [Ac6c]RPDKPRPYLPRPRPPRPVR / IV: [Ac6c]RPDKPRPYLPRPRPPRPVR (amide I:21-III:C, II:21-IV:C; linker I:22-II:22 via X1) [tetramer-butene-NHNH2]",1.89 ± 0.63,0.94 ± 0.04,0.81 ± 0.02,0.77 ± 0.02,–
"I: [Ac6c]RPDKPRPYLPRPRPPRPVR[Dab]C-NHNH2 / II: [Ac6c]RPDKPRPYLPRPRPPRPVR[Dab]C-NHNH2 / III: [Ac6c]RPDKPRPYLPRPRPPRPVR / IV: [Ac6c]RPDKPRPYLPRPRPPRPVR (amide I:21-III:C, II:21-IV:C; linker I:22-II:22 via BMH) [tetramer-bismal-NHNH2]",10.35 ± 0.22,3.93 ± 0.04,3.18 ± 0.03,1.62 ± 0.11,–
CCC[C@H](NC(=O)[C@H](CCC(=O)O)NC(=O)[C@@H](N)[C@H](C)O)C(=O)N[C@H](C(=O)N[C@@H](C)C(=O)N[C@@H](CC(C)C)C(=O)N[C@@H](CO)C(=O)N[C@@H](CCCNC(=N)N)C(=O)NC1(C(N)=O)CCCCC1)C(C)C [Allo-aca] (H-[aThr]E[Nva]VALSR[Ac6c]-NH2; N-terminus and C-terminus assumed),–,–,–,–,improvement in the MIC values when added together with imipenem or colistin [10]: failed to exert any improvement; improvement in the MIC values when added together with imipenem or colistin [11]: failed to exert any improvement
"I: [Ac6c]RPDKPRPYLPRPRPPRPVR[Dab] / II: [Ac6c]RPDKPRPYLPRPRPPRPVR[Dab] / III: [Ac6c]RPDKPRPYLPRPRPPRPVR / IV: [Ac6c]RPDKPRPYLPRPRPPRPVR (amide I:21-III:C, II:21-IV:C; linker I:C-II:C via X2) [tetramer-DTM-ol]",11.61 ± 1.44,3.67 ± 0.25,2.20 ± 0.01,1.86 ± 0.07,–
